# Measurements as given in US9883691B2, “Food and beverage products containing 1,3-propanediol and methods of modifying flavor release using 1,3-propanediol” (Kraft Foods Group Brands LLC, priority 2012, dated 2018).
# Assays:
# Assay type in all cases: physicochemical
# [1] = PTR-MS real-time headspace release, watermelon flavor model in water (Example 1); design: Sample A (PG) Mean / Sample B (1,3-propanediol) Mean: unit not given here; settings: for Sample B (1,3-propanediol) Mean / Sample A (PG) Mean: PTR-MS headspace, diluted in water, 90 minutes equilibration, mean of three; for Sample B (1,3-propanediol) Mean: watermelon flavor concentrate in 1,3-propanediol; for Sample A (PG) Mean: watermelon flavor concentrate in propylene glycol; for Percent Release Difference: Sample B (1,3-propanediol) relative to Sample A (PG)
# Protocol: The impact of 1,3-propanediol on the release of flavor compounds can be analyzed by Proton Transfer Reaction Mass Spectrometry (PTR-MS; model TOF-8000 from Ionicon Analytik Inc.), where real-time headspace release of volatiles is measured. A sampling apparatus is needed in conjunction with the PTR-MS inlet to prevent variations caused by headspace kinetics. By one exemplary approach, the sampling apparatus includes a 4 ounce sample vessel equipped with a 2-hole lid which may be sealed by an adhesive film to allow equilibration. […]. The holes are equal sized (˜2 mm diameter) and match the outer diameter of the PTR-MS inlet line. The flow of the dilution gas into the vessel is regulated by the vacuum and proportional valve of the PTR-MS inlet system. The sample vessel has a base diameter of 47 mm and is 45 mm high, of which 8 mm of height is occupied by the sample in the vessel in these experiments. The 2 holes in the lid are equidistant from the edge of the vessel (˜20 mm) and about 30 mm from each other. The PTR-MS inlet is braced by clamps in a fixed position vertically above the laboratory bench (˜55 mm) and a silicone rubber depth gauge is affixed to the PTR-MS inlet tubing and set at 18 mm. The PTR-MS inlet is thus consistently oriented in a vertical position 18 mm below the inside lid of the vessel and 19 mm above the sample in the vessel. The sample vessel is then held in place during sampling according to the depth gauge on the inlet line and the vessel is subsequently supported on the bench by a 10 mm plastic spacer.
# 15 grams of the sample to be tested (e.g., food or beverage product containing 1,3-propanediol) are added to the vessel. The vessel is sealed and allowed to equilibrate at room temperature (˜22° C.) for 90 minutes. At the time of sampling, the seal is removed from both the sampling hole and the dilution gas hole in the lid and the vessel is immediately affixed to the PTR-MS inlet via the sampling hole. The real-time released flavor is measured from the headspace of the sample vessel for two minutes (according to the conditions listed in Table 1 below). A comparative sample is prepared that is otherwise identical to the test sample but contains propylene glycol or water instead of 1,3-propanediol. The comparative sample is then analyzed in triplicate by PTR-MS using the above-described procedure. The data can be analyzed using PTR-MS Viewer, Version 3.0.0.101 (Ionicon Analytik G.m.b.H). The point of maximum intensity for each compound of interest can be determined and recorded according to the PTR-MS Viewer software. The maximum intensity in counts over the timescale for each compound of interest can be used for data analysis as it reflects the static equilibrium headspace concentration in the system at the moment of seal removal. Due to the necessity of a dilution gas, the volatile concentration decreases over time as the compounds of interest re-equilibrate to a state of dynamic equilibrium in the headspace.
# […]. Sample A was prepared with 20 grams watermelon flavor concentrate and 80 grams propylene glycol. Sample B was prepared with 20 grams watermelon flavor concentrate and 80 grams 1,3-propanediol. Each of the samples was further diluted by adding 0.08 grams of each diluted concentrate to 99.92 grams water to provide a flavor water solution.
# The diluted samples were analyzed by Proton Transfer Reaction Mass Spectrometry (PTR-MS; model TOF-8000 from Ionicon Analytik Inc.) for real-time headspace release volatiles measurement. Samples were analyzed in triplicate. […]. […].
# [2] = PTR-MS headspace release with various non-aqueous liquids (diols) at 0.05:100 (Example 3); settings: ratio 0.05:100; for PTR-MS headspace release in 1,3-butanediol: non-aqueous liquid 1,3-butanediol; for PTR-MS headspace release in 1,3-butanediol / PTR-MS headspace release in 1,3-propanediol / PTR-MS headspace release in 1,4-butanediol / PTR-MS headspace release in 1,7-heptanediol / PTR-MS headspace release in Propylene glycol: diluted in water; for PTR-MS headspace release in 1,3-propanediol: non-aqueous liquid 1,3-propanediol; for PTR-MS headspace release in 1,4-butanediol: non-aqueous liquid 1,4-butanediol; for PTR-MS headspace release in 1,7-heptanediol: non-aqueous liquid 1,7-heptanediol; for PTR-MS headspace release in Propylene glycol: non-aqueous liquid propylene glycol
# Protocol: […]. The flavoring was then diluted in water for analysis. The final concentration of each compound was held constant at 8 ppm except furfuryl mercaptan was included at 1.6 ppm to maintain a constant flavor level in the resulting beverage while the non-aqueous liquid varied but the ratio of each compound to non-aqueous liquid was held constant at 0.05:100. A variety of non-aqueous liquids were evaluated, including 1,4-butandiol; 1,7-heptandiol; 1,3-butandiol, propylene glycol, and 1,3-propanediol.
# Samples were analyzed by PTR-MS as described in Example 1.
# Percent suppression was calculated by the following formula: (I1-3-diol−Ialternate diol)/Ialternate diol×100.
# [3] = PTR-MS headspace release at various flavor compound to 1,3-propanediol or PG ratios (Example 2); settings: for Percent Suppression by 1,3-propanediol: (IZ−IPG)/IPG×100; for effect of 1,3-propanediol on release: flavor/1,3-propanediol ratio of 0.05:100; for release suppressed in the presence of 1,3-propanediol: 10% cut-off for significant difference, relative to PG
# Protocol: The compounds listed below in Table 3 were added together to provide a liquid flavoring to analyze the role, if any, of the amount of 1,3-propanediol on flavor release. […] The amount of each flavor compound in the beverage was held constant at 8 ppm except furfuryl mercaptan was included at 1.6 ppm while the amount of propylene glycol or 1,3-propanediol varied.
# The percent suppression was calculated using the following formula: (IZ−IPG)/IPG×100, where I is peak height, “Z” is 1,3-propanediol and “PG” is propylene glycol.
# [4] = PTR-MS headspace release in neat solvent, solvent/solvent experiment (Example 5); design: key to Release Differences: “Z” indicates that 1,3-propanediol had higher equilibrium maximum (meaning more of the flavor was released in 1,3-propanediol); “P” indicates that propylene glycol had higher equilibrium maximum; “-” indicates no statistical difference (95% significance) between the two samples; settings: 1.5 hrs equilibration; for Release Differences: 1,3-propanediol versus propylene glycol as sole solvent, 95% significance
# Protocol: […]. Then the head space was analyzed as described above.
# 0.86 grams of the concentrate was added to 100 grams of either propylene glycol or 1,3-propanediol to provide a 1,3-propanediol diluted concentrate or propylene glycol diluted concentrate. The diluted concentrates were then further diluted as outlined in Table 10 below.
# A 15 gram sample was weighed into a 4 oz vessel and analyzed at 1.5 hrs. of equilibration time as described in the method of Example 4.
# [5] = ratio 0.005:100, negative = suppressed vs PG
SMILES,"Sample B (1,3-propanediol) Mean [1]",Sample A (PG) Mean [1],Percent Release Difference [1] [%],"PTR-MS headspace release in 1,3-butanediol [2]","PTR-MS headspace release in 1,3-propanediol [2]","PTR-MS headspace release in 1,4-butanediol [2]","PTR-MS headspace release in 1,7-heptanediol [2]",PTR-MS headspace release in Propylene glycol [2],also measured
"OCCCO [1,3-propanediol]",,,,,,,,,"flavor retention compared to use of propylene glycol ([1]; watermelon flavor model, Table 2): generally resulted in increased flavor retention"
"OCCCCCCCO [1,7-heptandiol, reference compound]",,,,,,,,,flavor release with the non-aqueous liquid relative to comparative diol [2]: faster release than propylene glycol
CCC(C)COC(C)=O (stereo not shown) [2-methylbutyl acetate],4.27,5.30,−19.5,,,,,,
C/C=C\C(=O)C1C(C)=CCCC1(C)C (stereo not drawn) [Alpha damascone],0.57,0.82,−30.6,,,,,,
CCCCOC(=O)CCC [Butyl butyrate],,,,27.9,13.57,49.4,46.4,10.50,"Percent Suppression by 1,3-propanediol [3, 5]: −3.3%; Percent Suppression by 1,3-propanediol ([3]; ratio 0.05:100): 29.2%; Percent Suppression by 1,3-propanediol ([3]; ratio 5:100): −20.5%; Percent Suppression by 1,3-propanediol ([3]; ratio 15:100): −8.2%; Release Differences [4]: Z; Percent suppression by 1,3-butanediol relative to 1,4-butanediol [2]: −77.2%"
CCCC(=O)O [Butyric acid],,,,91.7,30.25,143.8,140.0,28.00,"effect of 1,3-propanediol on release [3]: minimal effect; Percent Suppression by 1,3-propanediol [3, 5]: 7.5%; Percent Suppression by 1,3-propanediol ([3]; ratio 0.05:100): 8.0%; Percent Suppression by 1,3-propanediol ([3]; ratio 5:100): −18.4%; Percent Suppression by 1,3-propanediol ([3]; ratio 15:100): −6.0%; Percent suppression by 1,3-butanediol relative to 1,4-butanediol [2]: −56.8%"
CC(C=O)Cc1ccc(C(C)C)cc1 (stereo not shown) [Cyclamen aldehyde],0.36,0.40,−10.0,,,,,,
CCCCCCCCCC(=O)O [Decanoic acid],,,,0.6,0.20,1.4,1.0,0.25,"effect of 1,3-propanediol on release [3]: minimal effect"
CCO [Ethanol],24.50,22.17,10.5,20.7,18.60,27.5,24.5,28.52,"release suppressed in the presence of 1,3-propanediol [3]: suppressed; effect of 1,3-propanediol on release [3]: significant suppression effect; Percent Suppression by 1,3-propanediol [3, 5]: 11.9%; Percent Suppression by 1,3-propanediol ([3]; ratio 0.05:100): −34.8%; Percent Suppression by 1,3-propanediol ([3]; ratio 5:100): −12.1%; Percent Suppression by 1,3-propanediol ([3]; ratio 15:100): −0.9%"
CCOC(C)=O [Ethyl acetate],1410,1797,−21.5,,,,,,
CCc1occc(=O)c1O [Ethyl maltol],1.25,1.25,0.0,,,,,,
CCCCCCO [Hexanol],,,,0.3,0.20,0.5,0.3,0.37,"release suppressed in the presence of 1,3-propanediol [3]: suppressed; Percent Suppression by 1,3-propanediol [3, 5]: −3.6%; Percent Suppression by 1,3-propanediol ([3]; ratio 0.05:100): −45.9%; Percent Suppression by 1,3-propanediol ([3]; ratio 5:100): −9.8%; Percent Suppression by 1,3-propanediol ([3]; ratio 15:100): −20.0%; Release Differences [4]: Z; release in 1,3-propanediol versus propylene glycol, solvent/solvent [4]: released faster in 1,3-propanediol; Percent suppression by 1,3-butanediol relative to 1,4-butanediol [2]: −50.0%"
CCCCCCC(C=O)=Cc1ccccc1 [Hexyl cinnamic aldehyde],1.32,0.95,38.8,,,,,,
CC(C)CC=O [Isovaleraldehyde],,,,40.9,12.35,62.5,63.5,12.51,"Percent Suppression by 1,3-propanediol [3, 5]: 3.7%; Percent Suppression by 1,3-propanediol ([3]; ratio 0.05:100): −1.3%; Percent Suppression by 1,3-propanediol ([3]; ratio 5:100): −22.2%; Percent Suppression by 1,3-propanediol ([3]; ratio 15:100): −2.6%; Percent suppression by 1,3-butanediol relative to 1,4-butanediol [2]: −53.0%"
O=CCc1ccccc1 [Phenyl acetaldehyde],0.78,0.80,−2.5,,,,,,
CC(=O)CCc1ccc(O)cc1 [Raspberry ketone],0.04,0.07,−48.1,,,,,,
CCC/C=C/C(=O)O [Trans-2-hexenoic acid],0.86,1.06,−18.3,,,,,,
COc1cc(C=O)ccc1O [Vanillin],0.05,0.05,3.4,,,,,,
